Reference: patent US20130109712A1, “Statins for the Prevention or Treatment of Drug Addictions” (Universite de Poitiers, priority 2010, published 2013)

Legend:
cocaine-seeking behavior = test: Cocaine-seeking test (extinction session) after cocaine self-administration and 20-day abstinence; format: in vivo, Sprague-Dawley rats; conditions: rats, simvastatin 1 mg/kg i.p. daily for 20 days of abstinence, 3 h extinction test
[1] = system: nicotine-seeking behavior; test: Nicotine-seeking test (extinction session) after nicotine self-administration and 20-day abstinence; format: in vivo, Sprague-Dawley rats; conditions: rats, simvastatin 1 mg/kg i.p. daily for 20 days of abstinence; 1 h extinction test; control approx. 100 active nose pokes
Method: Thus, the logic of the experiment is the following: • 1) the rats acquire self-administration under similar conditions; • 2) during withdrawal from self-administration, they are separated and receive, once a day for 20 days, an injection of simvastatin (1 mg/kg i.p) or a control solution; • 3) they are tested in a drug-seeking protocol in which their responses are not reinforced by the drug. Adult male (11-12 weeks old) Sprague-Dawley rats (Janvier, France), experimentally naive at the beginning of the study, are placed in the animal house with controlled temperature and degree of humidity, and are kept in a 12-hour light/dark cycle (light active at 7 am). As soon as they arrive, the rats are placed in cages in groups of 3 for one week, before beginning the surgery, consisting of the implantation of a catheter in the jugular vein. After the surgery and during the rest of the experiment, the rats are placed in cages individually. All the experiments are carried out during the “day” phase, in accordance with EC regulations for the use of animals in research (86/609/EEC). For the nicotine, 24 self-administration sessions are carried out using a fixed ratio 1 or 3 (FR1 or FR3) schedule of reinforcement, i.e., during the sessions, respectively one or three nose pokes in the active hole deliver an i.v. injection of nicotine. […]

With `CCC(C)(C)C(=O)O[C@H]1C[C@@H](C)C=C2C=C[C@H](C)[C@H](CC[C@@H]3C[C@@H](O)CC(=O)O3)[C@H]21` [simvastatin] the “reduction in cocaine-seeking behavior vs control” value (cocaine-seeking behavior) was 45%, the “number of active nose pokes (drug-seeking behavior)” value (cocaine-seeking behavior; control approx. 350) was “approximately 190 active nose pokes” and the “reduction in nicotine-seeking behavior vs control” value [1] was “approximately 50%”.
